Experimental data taken from PubChem BioAssay AID1963969 (Molecular Pharmacology Branch, DTP, NCI, 2024).

System: 817829-284-R-J1-PDC multi-cell spheroid viability
Assay: Anticancer human tumor 817829-284-R-J1-PDC patient-derived colon adenocarcinoma cell line growth inhibition [PI3K]
Details: for IC50: curve of first compound; for viability, T/C: stronger effect = lower value
Summary of the method: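 We assembled tumor spheroids that included a stromal compartment of HUVEC and MSCs, then exposed them to targeted agents alone and together with PI3K pathway inhibitors. Concentration series descended by half-log from clinically achievable Cmax levels. Viability served as the endpoint.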

[1] = second compound 0.00316 µM, first compound 0.0316 µM
[2] = second compound 0.00316 µM, first compound 0.1 µM
[3] = second compound 0.01 µM, first compound 0.0316 µM
[4] = second compound 0.01 µM, first compound 0.1 µM
[5] = second compound 0.0316 µM, first compound 0.0316 µM
[6] = second compound 0.0316 µM, first compound 0.1 µM
[7] = second compound 0.1 µM, first compound 0.0316 µM
[8] = second compound 0.1 µM, first compound 0.1 µM
[9] = second compound 0.316 µM, first compound 0.0316 µM
[10] = second compound 0.316 µM, first compound 0.1 µM
[11] = second compound 1 µM, first compound 0.0316 µM
[12] = second compound 1 µM, first compound 0.1 µM
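Further: spheroids exposed to agents for seven days before readout.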
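Wherever viability, T/C is given: percent of vehicle DMSO control viability which is 100%.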

CC(=O)c1c(C)c2cnc(Nc3ccc(N4CCNCC4)cn3)nc2n(C2CCCC2)c1=O + COc1c(OCCCN2CCOCC2)ccc2c3n(c(=NC(=O)c4cnc(N)nc4)nc12)CCN3
IC50 (second compound 0.00316 µM): 52.3 nM
IC50 (second compound 0.01 µM): > 100 nM
IC50 (second compound 0.0316 µM): 12.3 nM
IC50 (second compound 0.1 µM): < 0.316 nM
IC50 (second compound 0.316 µM): < 0.316 nM
IC50 (second compound 1 µM): < 0.316 nM
viability, T/C (second compound 0.00316 µM, first compound 0.000316 µM): 79.1%
viability, T/C (second compound 0.00316 µM, first compound 0.001 µM): 85.2%
viability, T/C (second compound 0.00316 µM, first compound 0.00316 µM): 66.7%
viability, T/C (second compound 0.00316 µM, first compound 0.01 µM): 74.5%
viability, T/C [1]: 66.6%
viability, T/C [2]: 30.2%
viability, T/C (second compound 0.01 µM, first compound 0.000316 µM): 91.1%
viability, T/C (second compound 0.01 µM, first compound 0.001 µM): 60%
viability, T/C (second compound 0.01 µM, first compound 0.00316 µM): 56%
viability, T/C (second compound 0.01 µM, first compound 0.01 µM): 55.7%
viability, T/C [3]: 75.7%
viability, T/C [4]: 34%
viability, T/C (second compound 0.0316 µM, first compound 0.000316 µM): 65.2%
viability, T/C (second compound 0.0316 µM, first compound 0.001 µM): 40.6%
viability, T/C (second compound 0.0316 µM, first compound 0.00316 µM): 48.3%
viability, T/C (second compound 0.0316 µM, first compound 0.01 µM): 60.6%
viability, T/C [5]: 33.5%
viability, T/C [6]: 24.3%
viability, T/C (second compound 0.1 µM, first compound 0.000316 µM): 29.2%
viability, T/C (second compound 0.1 µM, first compound 0.001 µM): 30.3%
viability, T/C (second compound 0.1 µM, first compound 0.00316 µM): 34.6%
viability, T/C (second compound 0.1 µM, first compound 0.01 µM): 21.1%
viability, T/C [7]: 22.7%
viability, T/C [8]: 25.3%
viability, T/C (second compound 0.316 µM, first compound 0.000316 µM): 16.9%
viability, T/C (second compound 0.316 µM, first compound 0.001 µM): 22.2%
viability, T/C (second compound 0.316 µM, first compound 0.00316 µM): 20.8%
viability, T/C (second compound 0.316 µM, first compound 0.01 µM): 17.9%
viability, T/C [9]: 18.2%
viability, T/C [10]: 16.2%
viability, T/C (second compound 1 µM, first compound 0.000316 µM): 11.2%
viability, T/C (second compound 1 µM, first compound 0.001 µM): 10.2%
viability, T/C (second compound 1 µM, first compound 0.00316 µM): 8.91%
viability, T/C (second compound 1 µM, first compound 0.01 µM): 12.2%
viability, T/C [11]: 11.6%
viability, T/C [12]: 7.24%

CNC(=O)c1ccc(N2C(=S)N(c3ccc(C#N)c(C(F)(F)F)c3)C(=O)C2(C)C)cc1F + COc1c(OCCCN2CCOCC2)ccc2c3n(c(=NC(=O)c4cnc(N)nc4)nc12)CCN3
IC50 (second compound 0.00316 µM): > 10000 nM
IC50 (second compound 0.01 µM): > 10000 nM
IC50 (second compound 0.0316 µM): 3040 nM
IC50 (second compound 0.1 µM): < 31.6 nM
IC50 (second compound 0.316 µM): < 31.6 nM
IC50 (second compound 1 µM): < 31.6 nM
viability, T/C [1]: 72.7%
viability, T/C [2]: 107%
viability, T/C (second compound 0.00316 µM, first compound 0.316 µM): 118%
viability, T/C (second compound 0.00316 µM, first compound 1 µM): 110%
viability, T/C (second compound 0.00316 µM, first compound 3.16 µM): 70.9%
viability, T/C (second compound 0.00316 µM, first compound 10 µM): 55.9%
viability, T/C [3]: 102%
viability, T/C [4]: 107%
viability, T/C (second compound 0.01 µM, first compound 0.316 µM): 117%
viability, T/C (second compound 0.01 µM, first compound 1 µM): 58.2%
viability, T/C (second compound 0.01 µM, first compound 3.16 µM): 81.3%
viability, T/C (second compound 0.01 µM, first compound 10 µM): 55%
viability, T/C [5]: 52.3%
viability, T/C [6]: 61.2%
viability, T/C (second compound 0.0316 µM, first compound 0.316 µM): 73.6%
viability, T/C (second compound 0.0316 µM, first compound 1 µM): 105%
viability, T/C (second compound 0.0316 µM, first compound 3.16 µM): 49.2%
viability, T/C (second compound 0.0316 µM, first compound 10 µM): 27.3%
viability, T/C [7]: 35.4%
viability, T/C [8]: 38.6%
viability, T/C (second compound 0.1 µM, first compound 0.316 µM): 31.2%
viability, T/C (second compound 0.1 µM, first compound 1 µM): 36.3%
viability, T/C (second compound 0.1 µM, first compound 3.16 µM): 31.5%
viability, T/C (second compound 0.1 µM, first compound 10 µM): 21.7%
viability, T/C [9]: 19.9%
viability, T/C [10]: 23%
viability, T/C (second compound 0.316 µM, first compound 0.316 µM): 23.2%
viability, T/C (second compound 0.316 µM, first compound 1 µM): 18.5%
viability, T/C (second compound 0.316 µM, first compound 3.16 µM): 19.1%
viability, T/C (second compound 0.316 µM, first compound 10 µM): 17.7%
viability, T/C [11]: 11.2%
viability, T/C [12]: 12.2%
viability, T/C (second compound 1 µM, first compound 0.316 µM): 9.45%
viability, T/C (second compound 1 µM, first compound 1 µM): 13.1%
viability, T/C (second compound 1 µM, first compound 3.16 µM): 11.1%
viability, T/C (second compound 1 µM, first compound 10 µM): 9.44%

Cn1cnc2c(F)c(Nc3ccc(Br)cc3Cl)c(C(=O)NOCCO)cc21 + COc1c(OCCCN2CCOCC2)ccc2c3n(c(=NC(=O)c4cnc(N)nc4)nc12)CCN3
IC50 (second compound 0.00316 µM): 487 nM
IC50 (second compound 0.01 µM): 82.7 nM
IC50 (second compound 0.0316 µM): 80.1 nM
IC50 (second compound 0.1 µM): < 9.49 nM
IC50 (second compound 0.316 µM): < 9.49 nM
IC50 (second compound 1 µM): < 9.49 nM
viability, T/C (second compound 0.00316 µM, first compound 0.00949 µM): 63.7%
viability, T/C (second compound 0.00316 µM, first compound 0.03 µM): 43.5%
viability, T/C (second compound 0.00316 µM, first compound 0.0949 µM): 70.4%
viability, T/C (second compound 0.00316 µM, first compound 0.3 µM): 69%
viability, T/C (second compound 0.00316 µM, first compound 0.949 µM): 34%
viability, T/C (second compound 0.00316 µM, first compound 3 µM): 32.1%
viability, T/C (second compound 0.01 µM, first compound 0.00949 µM): 62.3%
viability, T/C (second compound 0.01 µM, first compound 0.03 µM): 72.2%
viability, T/C (second compound 0.01 µM, first compound 0.0949 µM): 35.5%
viability, T/C (second compound 0.01 µM, first compound 0.3 µM): 43.7%
viability, T/C (second compound 0.01 µM, first compound 0.949 µM): 32.7%
viability, T/C (second compound 0.01 µM, first compound 3 µM): 22.9%
viability, T/C (second compound 0.0316 µM, first compound 0.00949 µM): 66.5%
viability, T/C (second compound 0.0316 µM, first compound 0.03 µM): 50.9%
viability, T/C (second compound 0.0316 µM, first compound 0.0949 µM): 56%
viability, T/C (second compound 0.0316 µM, first compound 0.3 µM): 39.5%
viability, T/C (second compound 0.0316 µM, first compound 0.949 µM): 25.8%
viability, T/C (second compound 0.0316 µM, first compound 3 µM): 18%
viability, T/C (second compound 0.1 µM, first compound 0.00949 µM): 48%
viability, T/C (second compound 0.1 µM, first compound 0.03 µM): 27.9%
viability, T/C (second compound 0.1 µM, first compound 0.0949 µM): 39.6%
viability, T/C (second compound 0.1 µM, first compound 0.3 µM): 29.3%
viability, T/C (second compound 0.1 µM, first compound 0.949 µM): 24.4%
viability, T/C (second compound 0.1 µM, first compound 3 µM): 29.3%
viability, T/C (second compound 0.316 µM, first compound 0.00949 µM): 19.6%
viability, T/C (second compound 0.316 µM, first compound 0.03 µM): 14.8%
viability, T/C (second compound 0.316 µM, first compound 0.0949 µM): 16.3%
viability, T/C (second compound 0.316 µM, first compound 0.3 µM): 11.3%
viability, T/C (second compound 0.316 µM, first compound 0.949 µM): 11.7%
viability, T/C (second compound 0.316 µM, first compound 3 µM): 6.47%
viability, T/C (second compound 1 µM, first compound 0.00949 µM): 15.4%
viability, T/C (second compound 1 µM, first compound 0.03 µM): 7.31%
viability, T/C (second compound 1 µM, first compound 0.0949 µM): 5.89%
viability, T/C (second compound 1 µM, first compound 0.3 µM): 4.21%
viability, T/C (second compound 1 µM, first compound 0.949 µM): 4.29%
viability, T/C (second compound 1 µM, first compound 3 µM): 1.75%
